Data as given in patent US20140107171A1, “Methods of Treating an Overweight or Obese Subject” (Zafgen, Inc., priority 2008, published 2014).

System: diet-induced obese mice
Assay: Weight loss study in diet-induced obese mice, oral administration
Format: in vivo
Conditions: C57BL/6NTac mice on 60% fat diet; 1.0 mg/kg orally in 10% gelucire in deionised water, once a day for 8 days
Experimental: A weight loss study is conducted in obese mice. The mice in this study are not genetically obese, BUT prior to and during the study, obesity is induced by a high-fat diet. Twelve week-old C57BL/6NTac mice, are maintained on a 60% fat diet prior to and during the study, are separated into […], eight animals per group. Average body weight of the mice is taken at the start of the study.
Each of six groups is orally administered 1.0 mg/kg of a compound disclosed herein in 10% gelucire in DEIONISED water. Each of these six groups is administered a different compound. One group is orally administered fumagillin at 1.0 mg/kg in 10% gelucire in deionised water, and one group is administered 10% gelucire in deionised water (vehicle). Mice receive administrations once a day for 8 days.

## CO[C@@H]1[C@H](OC(=O)/C=C/C=C/C=C/C=C/C(=O)O)CC[C@]2(CO2)[C@H]1[C@@]1(C)O[C@@H]1CC=C(C)C [fumagillin]
  body weight change over the course of the 8 days: weight over the course of the 8 days
